Source: US6162806A, “Active oxygen scavengers containing pterin derivatives” (Artemis, Inc., priority 1996, dated 2000)

Legend:
rats = assay: Acute toxicity, intravenous; type: in vivo, rat; conditions: 6 mg/kg intravenously; 10 rats; observed for 3 months
Text: Acute toxicity of 6-formyl-pterin was examined, using rats.

[1] = test system: delayed neuronal death (DND) in the cerebral hippocampus area; assay: Suppression of delayed neuronal death in transient cerebral ischemia model gerbils (MAP2 staining of hippocampus); type: in vivo, gerbil; conditions: 50 mM in physiological saline (1 ml) intraperitoneally 30 minutes after resumption of bloodstream, after 1 week
Protocol: A neck of each gerbil (body weigh=approximately 80 g) under a general anesthesia was incised. Ambilateral carotids were visually ligated with clips to cut off a bloodstream. After 5 minutes, the bloodstream was resumed, and the incision was sutured. After 30 minutes from the resumption of the bloodstream, physiological saline (1 ml) was intraperitoneally administered to a control group of the gerbils, whereas 50 mM of 6-formyl-pterin in physiological saline (1 ml) was intraperitoneally administered to an administering group of the gerbils. Thereafter, gerbils came out from anesthesia and then were bred for 1 week. Then, a brain was extirpated from each gerbil under a general anesthesia. Tissue slices were prepared from the brain and stained with microtubule-associated protein 2 (MAP2) which can specifically stain neurons, to evaluate the degree of delayed neuronal death (DND) in the cerebral hippocampus area.
FIG. 3 is a photomicrograph of a slice of a cerebral hippocampus tissue from a completely normal gerbil which had not encountered hemostasis, FIG. 4 is a photomicrograph of a slice of a cerebral hippocampus tissue from the control group, and FIG. 5 is a photomicrograph of a slice of a cerebral hippocampus tissue from the 6-formyl-pterin-administering group. […]

[2] = Active oxygen scavenging activity, active oxygen derived from potassium superoxide in DMSO (electron spin resonance spectroscopy); conditions: ESR at 77K, vs no addition
Protocol: Potassium superoxide (KO2) (28 mg) was added to dimethyl sulfoxide (DMSO) (20 ml) to prepare a saturated solution so that active oxygens were generated in DMSO. As a standard substance, 2,2,6,6-tetramethylpiperidine-N-oxide (TEMPO) was used. TEMPO was dissolved in DMSO in the concentrations of 0.1, 0.3, 0.5, 0.7, 1, 1.2, or 1.5 mM. The electron spin resonance signals obtained (measured at 77K) were integrated to prepare a standard curve.

[3] = test system: active oxygens generated by PMA-stimulated polymorphonuclear leukocytes (PMN); assay: Active oxygen scavenging activity, PMN-PMA system (CLA chemiluminescence); type: cell-based, human (healthy adult); conditions: 37° C., approximately 10 minutes
Protocol: Venous blood (10 ml) was taken from a healthy adult, and polymorphonuclear leukocytes (abbreviated to PMN) were isolated therefrom. The leukocytes were suspended in HBSS (Hanks' balanced salt solution) to approximately 1×10^6 cells/ml. 2-Methyl-6-phenyl-3,7-dihydroimidazo-(1,2-a)-pyrazin-3-on (hereinafter referred to as CLA) as a chemiluminescent compound, that is, a compound which may generate chemiluminescence due to the presence of active oxygens, was dissolved in a phosphate buffered saline (hereinafter referred to as PBS) to the concentration of 50 μM. Phorbol myristate acetate (abbreviated to PMA) as a polymorphonuclear leukocyte stimulating agent, that is, a compound which may generate active oxygens by stimulating polymorphonuclear leukocytes, was dissolved in PBS to the concentration of 20 μg/ml. The PMN suspension, the CLA solution, and the PMA solution were cooled with ice for storage until use for measurement.
6-Formyl-pterin as the active ingredient of the active oxygen scavenger according to the present invention was dissolved in PBS to the concentrations of 100 μM, 250 μM, or 500 μM, and then warmed to 37° C. before measurement. PBS as a control was also warmed to 37° C. before measurement.
To polymorphonuclear leukocytes isolated from 2 ml of the PMN suspension by centrifugation, the 6-formyl-pterin solutions of various concentrations or PBS were added to adjust total volume to 1930 μl. The mixtures were poured into test tubes and warmed at 37° C. for 15 minutes. After adding the CLA solution (50 μl), the mixture was placed in a chemiluminescence reader and the measurement of an amount of chemiluminescence was started. After 1 minute from the beginning of the measurement, the PMA solution (20 μl) was injected into the test tube with a syringe. The measurement was performed at 37° C. for approximately 10 minutes while monitoring every 10 seconds.
FIG. 1 is a graph showing a total chemiluminescence amount obtained by accumulating chemiluminescence amounts measured every 10 seconds.

[4] = literature; cited from earlier work
[5] = background art; cited from earlier work

Compound	death (acute toxicity) (rats)	delayed neuronal death [1]	state of neurons in cerebral hippocampus tissue slice (FIG. 5) ([1]; control: neurons completely dropped)	amount of active oxygens generated from KO2 ([2]; 1 mM 6-formyl-pterin)	amount of active oxygens generated from KO2 ([2]; from 0.1 mM 6-formyl-pterin)	amount of chemiluminescence, i.e., the amount of active oxygens ([3]; 100 μM, vs PBS control (FIG. 1, curve b))	amount of chemiluminescence, i.e., the amount of active oxygens ([3]; 250 μM, vs PBS control (FIG. 1, curve c))	amount of chemiluminescence, i.e., the amount of active oxygens ([3]; 500 μM, vs PBS control (FIG. 1, curve d))	antioxidative activity against active oxygens [4]	teratogenicity [5]
Nc1nc2ncc(C=O)nc2c(=O)[nH]1 [6-formyl-pterin]	No death was observed	suppressed	many neurons were living	almost disappeared	lowered	significantly suppressed	almost disappeared	almost disappeared		
Nc1nc2ncc([C@H](O)[C@H](O)CO)nc2c(=O)[nH]1 [NP, 2-amino-4-oxo-6-(D-erythro-1',2',3'-trihydroxypropyl)-pteridine]									antioxidative activity against active oxygens	
Nc1nc2c(c(=O)[nH]1)NC([C@H](O)[C@H](O)CO)CN2 (some centres unmarked) [NPH4, 5,6,7,8-tetrahydroneopterin]									potent antioxidative activity	exhibits teratogenicity
